From ChEMBL document CHEMBL1138214 (J Med Chem, 2006)
Calls of active or inactive are those of the source. The calls are words filed in the database; no cut-off is given here.

Assays:
[1] = target: T1, C-X-C chemokine receptor type 1 (Homo sapiens) (UniProt P25024); test: Displacement of [125I]hCXCL8 from human CXCR1 receptor expressed in BaF3 cells at >10000 nM; format: cell-based
T1 sequence (whole entry): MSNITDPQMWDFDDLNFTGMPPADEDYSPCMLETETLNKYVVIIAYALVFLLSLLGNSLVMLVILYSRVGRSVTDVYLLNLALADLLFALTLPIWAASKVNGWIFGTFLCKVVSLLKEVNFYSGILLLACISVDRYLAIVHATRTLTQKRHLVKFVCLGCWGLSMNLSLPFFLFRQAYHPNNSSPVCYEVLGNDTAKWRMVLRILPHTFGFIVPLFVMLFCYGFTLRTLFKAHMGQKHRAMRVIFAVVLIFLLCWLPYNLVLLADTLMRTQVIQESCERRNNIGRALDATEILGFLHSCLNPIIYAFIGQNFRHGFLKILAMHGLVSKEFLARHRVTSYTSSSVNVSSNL

[2] = target: T2, C-X-C chemokine receptor type 2 (Homo sapiens, UniProt P25025); test: Displacement of [125I]hCXCL8 from human CXCR2 receptor expressed in BaF3 cells; format: cell-based
T2 sequence (P25025 whole entry): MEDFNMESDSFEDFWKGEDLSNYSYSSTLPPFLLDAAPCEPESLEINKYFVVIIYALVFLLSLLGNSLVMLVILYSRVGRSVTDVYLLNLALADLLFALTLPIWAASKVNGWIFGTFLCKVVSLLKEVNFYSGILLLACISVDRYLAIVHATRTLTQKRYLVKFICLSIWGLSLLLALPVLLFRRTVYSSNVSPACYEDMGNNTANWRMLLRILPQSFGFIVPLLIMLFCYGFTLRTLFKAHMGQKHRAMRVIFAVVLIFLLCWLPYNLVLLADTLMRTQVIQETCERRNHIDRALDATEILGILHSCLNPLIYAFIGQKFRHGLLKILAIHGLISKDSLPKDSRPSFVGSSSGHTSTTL

[3] = AUC (0-6h) in rat at 10 mg/kg, po; format: ADME, organism-based; design: time < 6 hr, dose 10 mg/kg, route oral; details: plasma
[4] = target: T3, C-X-C chemokine receptor type 1 (Homo sapiens, UniProt P25024); test: Displacement of [125I]hCXCL8 from human CXCR1 receptor expressed in BaF3 cells; format: cell-based
T3 sequence (P25024 whole entry): T1 sequence (whole entry)

[5] = target: Interleukin-8 receptors, CXCR1/CXCR2 (Homo sapiens) (UniProt P25025+P25024); test: Selectivity for CXCR2 over CXCR1; format: protein assay
[6] = target: T4, Interleukin-8 receptors, CXCR1/CXCR2 (Homo sapiens, UniProt P25025+P25024); test: Inhibition of CXCL8-induced human neutrophil chemotaxis; format: functional
T4 sequence (P25025 whole entry): T2 sequence (P25025 whole entry)
T4 sequence (P25024 whole entry): T1 sequence (whole entry)

[7] = target: T5, C5a anaphylatoxin chemotactic receptor 1 (Homo sapiens) (UniProt P21730); test: Inhibition of C5a-induced human neutrophil chemotaxis; format: functional
T5 sequence (whole entry): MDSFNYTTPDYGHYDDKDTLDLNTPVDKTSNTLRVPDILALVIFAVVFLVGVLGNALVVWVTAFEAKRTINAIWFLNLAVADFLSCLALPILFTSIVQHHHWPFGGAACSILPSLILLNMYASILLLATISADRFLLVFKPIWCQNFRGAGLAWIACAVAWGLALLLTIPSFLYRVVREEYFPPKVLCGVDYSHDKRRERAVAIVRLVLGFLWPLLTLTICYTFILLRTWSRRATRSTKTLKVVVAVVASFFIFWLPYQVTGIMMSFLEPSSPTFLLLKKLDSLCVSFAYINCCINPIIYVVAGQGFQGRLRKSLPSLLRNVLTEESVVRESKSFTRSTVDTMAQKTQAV

[8] = target: T6, fMet-Leu-Phe receptor (Homo sapiens) (UniProt P21462); test: Inhibition of fMLP-induced human neutrophil chemotaxis; format: functional
T6 sequence (whole entry): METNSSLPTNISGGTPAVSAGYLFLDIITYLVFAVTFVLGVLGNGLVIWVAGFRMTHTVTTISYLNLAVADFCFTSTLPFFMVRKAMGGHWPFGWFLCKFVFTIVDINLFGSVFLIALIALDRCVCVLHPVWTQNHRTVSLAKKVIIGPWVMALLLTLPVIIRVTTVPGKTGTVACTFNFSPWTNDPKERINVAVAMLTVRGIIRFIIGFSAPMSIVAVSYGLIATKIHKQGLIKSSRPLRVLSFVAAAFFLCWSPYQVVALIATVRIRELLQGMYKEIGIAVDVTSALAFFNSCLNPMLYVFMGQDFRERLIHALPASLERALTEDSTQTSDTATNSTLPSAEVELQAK

[9] = target: T7, C-X-C chemokine receptor type 3 (Homo sapiens) (UniProt P49682); test: Inhibition of CXCR3 receptor at 2 to 20 uM
T7 sequence (whole entry): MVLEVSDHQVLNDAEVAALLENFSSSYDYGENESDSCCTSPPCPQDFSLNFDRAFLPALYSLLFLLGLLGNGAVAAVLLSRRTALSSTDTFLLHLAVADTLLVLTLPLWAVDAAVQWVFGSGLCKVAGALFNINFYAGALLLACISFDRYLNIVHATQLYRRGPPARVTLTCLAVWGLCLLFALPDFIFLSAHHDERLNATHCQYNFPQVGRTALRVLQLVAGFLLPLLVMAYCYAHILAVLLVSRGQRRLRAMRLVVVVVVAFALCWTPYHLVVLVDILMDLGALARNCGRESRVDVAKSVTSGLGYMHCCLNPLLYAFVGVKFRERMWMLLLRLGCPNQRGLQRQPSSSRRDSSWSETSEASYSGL

[10] = target: C-C chemokine receptor type 5 (Homo sapiens) (UniProt P51681); test: Inhibition of CCR5 receptor at 2 to 20 uM
Sequence of C-C chemokine receptor type 5 (Homo sapiens) (P51681 whole entry, looked up): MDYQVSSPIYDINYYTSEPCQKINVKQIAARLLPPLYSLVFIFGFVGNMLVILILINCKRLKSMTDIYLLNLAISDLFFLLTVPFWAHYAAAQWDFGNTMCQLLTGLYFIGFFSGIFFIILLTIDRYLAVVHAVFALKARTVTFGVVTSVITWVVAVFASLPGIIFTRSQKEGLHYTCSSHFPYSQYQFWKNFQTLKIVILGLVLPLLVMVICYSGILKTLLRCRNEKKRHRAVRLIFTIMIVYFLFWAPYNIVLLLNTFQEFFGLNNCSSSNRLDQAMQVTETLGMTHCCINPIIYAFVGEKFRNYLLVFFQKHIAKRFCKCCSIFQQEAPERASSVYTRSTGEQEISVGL

Structure (SMILES)	IC50 [2]	AUC(0-t) at 6 h [3]	IC50 [4]	also measured
CC[C@H](Nc1c(Nc2cccc(C(=O)N(C)C)c2O)c(=O)c1=O)c1ccccc1	0.234 µM	1 µM·h		Activity [1]: inactive
CN(C)C(=O)c1cccc(Nc2c(NCc3ccccc3)c(=O)c2=O)c1O	0.236 µM			Activity [1]: inactive
Cc1ccc([C@H](Nc2c(Nc3cccc(C(=O)N(C)C)c3O)c(=O)c2=O)C(C)C)o1	0.0062 µM	3.2 µM·h	0.034 µM	
CC[C@@H](Nc1c(Nc2cccc(C(=O)N(C)C)c2O)c(=O)c1=O)c1ccc2c(c1)OCO2	0.005 µM	31.7 µM·h	0.145 µM	
Cc1ccc([C@H](Nc2c(Nc3cccc(C(=O)N(C)C)c3O)c(=O)c2=O)C2CC2)o1	0.0036 µM	1.4 µM·h	0.055 µM	
CC[C@@H](Nc1c(Nc2cccc(C(=O)N(C)C)c2O)c(=O)c1=O)c1cccs1	0.006 µM	2.5 µM·h	0.081 µM	
CC[C@@H](Nc1c(Nc2cccc(C(=O)N(C)C)c2O)c(=O)c1=O)c1ccccc1	0.0068 µM	17.4 µM·h	0.254 µM	IC50 [6]: 0.398 µM
C[C@H](Nc1c(Nc2cccc(C(=O)N(C)C)c2O)c(=O)c1=O)c1ccccc1				Activity [1]: inactive
Cc1ccc([C@H](Nc2c(Nc3cccc(C(=O)N(C)C)c3O)c(=O)c2=O)C(C)(C)C)o1	0.0038 µM	2.6 µM·h	0.011 µM	

Second part, led by results:

IC50 [2]	AUC(0-t) at 6 h [3]	IC50 [4]	Structure (SMILES)	also measured
0.0054 µM	34 µM·h	0.775 µM	Cc1ccc([C@@H](C)Nc2c(Nc3cccc(C(=O)N(C)C)c3O)c(=O)c2=O)o1	Ratio IC50 [5]: > 100; IC50 [6]: 0.251 µM
0.0053 µM	14.1 µM·h	0.235 µM	CC[C@@H](Nc1c(Nc2cccc(C(=O)N(C)C)c2O)c(=O)c1=O)c1ccc(C)s1	
	49 µM·h		CC[C@@H](Nc1c(Nc2cccc(C(=O)N(C)C)c2O)c(=O)c1=O)c1ccc(C)o1 [NAVARIXIN ANHYDROUS]	Activity [7]: inactive; Activity [8]: inactive; inhibition [9]: < 15%; inhibition [10]: < 15%
0.0038 µM	1.4 µM·h	0.026 µM	CC[C@@H](Nc1c(Nc2cccc(C(=O)N(C)C)c2O)c(=O)c1=O)c1ccco1	
0.0049 µM	18.3 µM·h	0.197 µM	CC[C@@H](Nc1c(Nc2cccc(C(=O)N(C)C)c2O)c(=O)c1=O)c1cccc(F)c1	
	6.4 µM·h	0.91 µM	CCC(CC)Nc1c(Nc2cccc(C(=O)N(C)C)c2O)c(=O)c1=O	
		3.06 µM	C[C@@H](Nc1c(Nc2cccc(C(=O)N(C)C)c2O)c(=O)c1=O)c1ccccc1	
